This is an account of results in patent US9283242B2, “Uses of dihydro bases” (priority 2013, dated 2016).

For one data set, the target named is PfuTurbo DNA polymerase (Pyrococcus furiosus, UniProt P61875). As to the kind of experiment: In vitro polymerase extension assay on KP1212-containing M13 template. The data set is classed as biochemical. How it is done: (A) A 16mer oligonucleotide containing KP1212 (SEQ ID NO: 1) (or controls) at a specific site was chemically synthesized and ligated into the genome of an M13 bacteriophage. (B) The KP1212-containing M13 genomes were replicated within E. coli cells. Progeny were analyzed to characterize the amount and the type of nucleic acid base placed opposite the lesion during replication. The relative reduction in lesion vs. non-lesion competitor progeny formation was used as an estimate of the extent to which KP1212 and m3C inhibited DNA replication. (C) The KP1212-containing M13 genomes were used as templates for in vitro polymerase extension assays, carried out at 72° C., using the high-fidelity DNA polymerase PfuTurbo. (D) Bypass efficiency (CRAB assay) of KP1212, m3C, C in HK81 (AlkB^+) and HK82 (AlkB^−) E. coli cells. m3C and undamaged C were used as controls. Genomes were made and normalized to one another before being combined with a competitor genome. Each mixture was transformed into the corresponding cell strain in triplicate, and bypass efficiency was calculated by using the undamaged C genome as 100% bypass, with error bars representing one standard deviation. (E) Mutagenesis (REAP assay) of KP1212, m3C, and C in HK82 (AlkB^−) E. coli cells. m3C, undamaged C, and an approximately equimolar mixture of genomes carrying unmodified G/A/T/C bases at the site of inquiry (denoted as GATC) were used as controls. Genomes containing the lesions of interest were transfected into E. coli in triplicate.
PfuTurbo DNA polymerase, sequence (P61875 whole entry): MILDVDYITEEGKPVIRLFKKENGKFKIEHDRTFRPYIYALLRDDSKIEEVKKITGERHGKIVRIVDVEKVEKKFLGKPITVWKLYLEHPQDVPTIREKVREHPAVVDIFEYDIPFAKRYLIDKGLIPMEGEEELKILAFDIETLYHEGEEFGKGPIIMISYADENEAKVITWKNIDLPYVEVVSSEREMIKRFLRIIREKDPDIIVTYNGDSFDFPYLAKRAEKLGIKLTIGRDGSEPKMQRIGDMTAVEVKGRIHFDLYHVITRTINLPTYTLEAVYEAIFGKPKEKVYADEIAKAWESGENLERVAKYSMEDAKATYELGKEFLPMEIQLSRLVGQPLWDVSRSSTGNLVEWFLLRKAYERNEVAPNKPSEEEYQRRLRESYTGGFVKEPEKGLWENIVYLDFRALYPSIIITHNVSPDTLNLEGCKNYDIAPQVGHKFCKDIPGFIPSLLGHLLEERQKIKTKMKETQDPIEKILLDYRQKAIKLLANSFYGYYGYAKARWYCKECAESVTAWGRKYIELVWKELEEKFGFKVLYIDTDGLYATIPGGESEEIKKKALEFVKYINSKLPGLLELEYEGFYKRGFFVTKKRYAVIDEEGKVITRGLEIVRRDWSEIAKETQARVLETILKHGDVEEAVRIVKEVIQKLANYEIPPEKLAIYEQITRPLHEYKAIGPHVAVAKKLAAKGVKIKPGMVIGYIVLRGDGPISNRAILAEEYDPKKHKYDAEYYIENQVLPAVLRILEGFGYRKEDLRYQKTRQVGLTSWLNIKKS
The single-stranded, lesion-containing genomes, constructed above were also used as templates for in vitro polymerase extension assays. Fifty fmol of each genome were mixed with 50 pmol of REAP forward and reverse primers, 1.25 U Pfu Turbo DNA polymerase and 5 nmol of each dNTP in 1×Pfu Turbo buffer. […] Subsequently, 29 PCR cycles amplified the newly formed strand and generated a product that was then analyzed using the exact downstream steps of the REAP assay described above. […]

The nature of data set [1]: Mutagenesis model: base-pairing preference of tautomers combined with NMR tautomeric distribution. Conditions: assuming imine geometric isomers present in equal proportions. As for the experimental part: One of the fundamental assumptions in developing a mutagenesis model is that each KP1212 tautomer has a distinct base-pairing preference. To establish these preferences, in a relatively simple modeling exercise each tautomer was analyzed for its most probable base-pairing partner on the basis of hydrogen bonding. The primary criterion for correct base-pairing was formation of the maximum number of Watson-Crick type hydrogen bonds between the bases. Each type of hydrogen bond was considered to confer an equal stabilization energy. Configurations in which multiple base pairs had equal hydrogen bond numbers were considered equally probable. Since KP1212 is a cytosine (pyrimidine) analog, and the primary mutagenic events are A to G or G to A, our modeling exercise explored only purine-pyrimidine putative base pairs. Several KP1212 tautomers featured a canonical Watson-Crick face. Thus, tautomers enol-amino (1), enol-imino (2Z) and keto-amino (4) were predicted to pair with guanine, while keto-imino (5E) was predicted to pair with adenine (FIG. 19). The remaining tautomers could not adopt a canonical Watson-Crick face and therefore were hypothesized to pair in other geometries (i.e., wobble pairings, or syn-conformer pairings). […]

For data set [2] the following is noted: Phase I and II clinical trials; cited from earlier work.
The mark [3] stands for this setting: in vitro, 72° C., PfuTurbo DNA polymerase (FIG. 18C).

Regarding `NC1=NC(=O)N([C@H]2C[C@H](O)[C@@H](CO)O2)CN1` [KP1212, 5-aza-5,6-dihydro-2′-deoxycytidine], on PfuTurbo DNA polymerase (in vitro polymerase extension reaction, pH 7.0 and 7.8, preliminary studies), the “pH dependence of mispairing frequency” value is listed as “did not vary significantly”. For the same compound, at PfuTurbo DNA polymerase (setting [3]), the “A placed opposite KP1212” value was 9.5 % of the time and the “G placed opposite KP1212” value is reported as 90.5 % of the time. For the same compound, in data set [1], the “model-predicted pairing with A” value was ~20 % of the time and the “model-predicted pairing with G” value is given as ~80 % of the time. Moreover, the “safety in clinical trials” value in data set [2] was “safe”.
